The values below come from patent publication US20250262201A1, “COMPOUNDS AND METHODS USEFUL FOR STABILIZING PHENYLALANINE HYDROXYLASE MUTATIONS” (Agios Pharmaceuticals, Inc., priority 2022, published 2025).

In one experiment the target is T1, human PAH with the R408W mutation (Homo sapiens, UniProt P00439, R408W).
T1 construct: expressed in transfected cells
T1 sequence (P00439 1-452 R408W): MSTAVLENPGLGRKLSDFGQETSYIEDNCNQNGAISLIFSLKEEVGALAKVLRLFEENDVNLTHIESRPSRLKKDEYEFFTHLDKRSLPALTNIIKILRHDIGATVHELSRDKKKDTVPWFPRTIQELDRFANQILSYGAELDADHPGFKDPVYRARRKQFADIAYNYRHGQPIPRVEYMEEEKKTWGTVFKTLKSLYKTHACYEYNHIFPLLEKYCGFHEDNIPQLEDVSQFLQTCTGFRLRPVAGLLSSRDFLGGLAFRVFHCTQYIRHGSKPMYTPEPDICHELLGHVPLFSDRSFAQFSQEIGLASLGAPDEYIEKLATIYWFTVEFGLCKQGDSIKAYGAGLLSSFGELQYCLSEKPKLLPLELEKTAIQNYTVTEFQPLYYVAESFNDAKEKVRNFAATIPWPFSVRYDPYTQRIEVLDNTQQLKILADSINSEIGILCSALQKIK
Description: Cell Based Phenylalanine Flux Assay. On the set-up: scale not given here. The following applies: A375 R408W cells, 24 hrs with compound, then 20 μM sepiapterin and 800 μM 13C9,15N-Phenylalanine for 4 hours; 13C-Tyrosine by LC-MS; average where tested multiple times.
For the compound `Cc1nc(C(F)(F)F)c(C(=O)N2CCc3nc[nH]c3[C@@H]2c2cn3ccccc3n2)o1` (single isomer, unassigned), the AC50 (usually the midpoint of the concentration-response curve, whichever way the signal moves) is reported as “E, E”.

With `Cc1nc(C(F)(F)F)c(C(=O)N2CCc3nc[nH]c3[C@H]2c2cn3ccccc3n2)o1` (single isomer, unassigned), the concentration at half-maximal activity (AC50) entry was “E, E”.

Take `Cn1ccc(-c2nc(C(F)F)c(C(=O)N3CCc4[nH]cnc4[C@H]3c3ncc4ccccc4n3)o2)n1` (single isomer, unassigned): the AC50 entry was “E, E”.

For `Cc1ncoc1C(=O)N1C[C@@H](C)c2[nH]cnc2[C@@H]1c1cc2ccccc2cn1` (single isomer, unassigned), the AC50 entry is reported as “E, E”.

For the compound `C[C@H]1CN(C(=O)c2ocnc2C(F)(F)F)[C@@H](c2cc3ccccc3cn2)c2nc[nH]c21` (single isomer, unassigned), the AC50 entry is “E, E”.

Still in this experiment, the particulars now being: A375 R408W cells, 24 hrs with compound, then 20 μM sepiapterin and 800 μM 13C9,15N-Phenylalanine for 4 hours; 13C-Tyrosine by LC-MS; average where tested multiple times; read-out: AC50.
With `CC(C)(O)c1cc(C(=O)N2CCc3[nH]cnc3[C@H]2c2cc3ccccc3cn2)no1`, the AC50 lay in the range of 1 to 5 µM.

Regarding `CC(C)(O)c1cc(C(=O)N2CCc3[nH]cnc3[C@H]2c2cc3ccccc3cn2)on1`, the half-maximal activity concentration (AC50) is 1 to 5 µM.

For `O=C(c1nnc(CCN2CC(F)C2)o1)N1CCc2[nH]cnc2[C@H]1c1cc2ccccc2cn1`, the AC50 fell in the range of 1 to 5 µM.

For the compound `CN1CCN(c2nnc(C(=O)N3CCc4[nH]cnc4[C@H]3c3cc4ccccc4cn3)o2)CC1`, the AC50 was in the range of 1 to 5 µM.

Take `O=C(CCc1cnco1)N1CCc2[nH]cnc2C1c1cn2ccccc2n1` (centres unmarked): the AC50 fell in the range of 1 to 5 µM.

For the compound `Cc1nnc(CCC(=O)N2CCc3[nH]cnc3C2c2cn3ccccc3n2)o1` (centres unmarked), the AC50 was over 5 µM.

Consider `O=C(Cn1cncn1)N1CCc2[nH]cnc2C1c1cn2ccccc2n1` (centres unmarked), for which the AC50 was over 5 µM.

With `O=C(CCc1ncco1)N1CCc2[nH]cnc2C1c1cn2ccccc2n1` (centres unmarked), the AC50 lay in the range of 1 to 5 µM.

For `O=C(CCc1ccccc1)N1CCc2[nH]cnc2C1c1cn2ccccc2n1` (centres unmarked) [listing 1 of 2 here], the concentration at half-maximal activity (AC50) lay in the range of 1 to 5 µM.

For `O=C(Cc1ccccn1)N1CCc2[nH]cnc2C1c1cn2ccccc2n1` (centres unmarked), the AC50 was over 5 µM.

Take `Cc1nnc(CCC(=O)N2CCc3[nH]cnc3C2c2cn3ccccc3n2)s1` (centres unmarked): the AC50 is over 5 µM.

As for `O=C(CCc1cncs1)N1CCc2[nH]cnc2C1c1cn2ccccc2n1` (centres unmarked), the AC50 is over 5 µM.

`O=C(c1cnc(C2(O)CCC2)s1)N1CCc2[nH]cnc2C1c1cn2ccccc2n1` (centres unmarked): the AC50 lay within 1 to 5 µM.

Take `CN1CCN(c2nnc(C(=O)N3CCc4[nH]cnc4C3c3cn4ccccc4n3)o2)CC1` (centres unmarked): the AC50 was over 5 µM.

On to `CC(C)(F)c1ncc(C(=O)N2CCc3[nH]cnc3C2c2cn3ccccc3n2)o1` (centres unmarked), for which the AC50 lay in the range of 1 to 5 µM.

With `Cn1cc(-c2nnc(C(=O)N3CCc4[nH]cnc4C3c3cn4ccccc4n3)o2)cn1` (centres unmarked), the AC50 lay within 1 to 5 µM.

For the compound `CC(C)(O)c1nc(C2CC2)c(C(=O)N2CCc3[nH]cnc3C2c2cn3ccccc3n2)o1` (centres unmarked), the AC50 fell in the range of 1 to 5 µM.

As for `O=C(c1oc(-c2ccccn2)nc1C1CC1)N1CCCc2[nH]cnc2C1c1cn2ccccc2n1` (centres unmarked), the AC50 is over 5 µM.

`O=C(c1oc(-c2ccccn2)nc1C1CC1)N1CCc2nc[nH]c2C1c1cn2ccccc2n1` (centres unmarked): the AC50 fell in the range of 1 to 5 µM.

As for `O=C(c1ocnc1-c1ccccn1)N1CCc2[nH]cnc2C1c1cn2ccccc2n1` (centres unmarked), the AC50 lay within 1 to 5 µM.

Take `Cc1nc(-c2ccccn2)oc1C(=O)N1CCc2[nH]cnc2C1c1cn2ccccc2n1` (centres unmarked) [listing 1 of 2 here]: the AC50 was in the range of 1 to 5 µM.

With `O=C(c1nnc(-c2ccccn2)o1)N1CCc2[nH]cnc2C1c1cn2ccccc2n1` (centres unmarked), the AC50 was 1 to 5 µM.

For `O=C(c1nnc(-c2ccccn2)o1)N1CCCc2[nH]cnc2C1c1cn2ccccc2n1` (centres unmarked), the half-maximal activity concentration (AC50) was over 5 µM.

With `CC(C)(O)c1ncc(C(=O)N2CCc3[nH]cnc3C2c2cn3ccccc3n2)s1` (centres unmarked), the AC50 is 1 to 5 µM.

For `O=C(c1cnc(C(F)F)s1)N1CCc2[nH]cnc2C1c1cn2ccccc2n1` (centres unmarked), the AC50 was in the range of 1 to 5 µM.

For the compound `O=C(c1nnc(C2CC2)o1)N1CCc2[nH]cnc2C1c1cn2ccccc2n1` (centres unmarked), the AC50 lay within 1 to 5 µM.

Regarding `O=C(c1cnc(C2CC2)o1)N1CCc2[nH]cnc2C1c1cn2ccccc2n1` (centres unmarked), the AC50 fell in the range of 1 to 5 µM.

On to `O=C(c1cnc(C2CC2)s1)N1CCc2[nH]cnc2C1c1cn2ccccc2n1` (centres unmarked) [listing 1 of 2 here], for which the half-maximal activity concentration (AC50) fell in the range of 1 to 5 µM.

In the case of `O=C(N1CCc2[nH]cnc2C1c1cn2ccccc2n1)C(F)(F)C1(O)CCC1` (centres unmarked), the AC50 was in the range of 1 to 5 µM.

Regarding `O=C(CCc1nc2ccccc2o1)N1CCc2[nH]cnc2C1c1cn2ccccc2n1` (centres unmarked), the AC50 fell in the range of 1 to 5 µM.

Regarding `O=C(CCc1nnc(C(F)F)o1)N1CCc2[nH]cnc2C1c1cn2ccccc2n1` (centres unmarked), the AC50 is over 5 µM.

Regarding `O=C(c1nnc(N2CCOCC2)o1)N1CCc2[nH]cnc2C1c1cn2ccccc2n1` (centres unmarked), the AC50 is over 5 µM.

Take `O=C(c1ocnc1C(F)F)N1CCc2nc[nH]c2C1c1cn2ccccc2n1` (centres unmarked): the AC50 lay within 1 to 5 µM.

In the case of `COCc1ncc(C(=O)N2CCc3[nH]cnc3C2c2cn3ccccc3n2)o1` (centres unmarked), the AC50 was over 5 µM.

For `O=C(c1cnc(C(F)(F)F)o1)N1CCc2[nH]cnc2C1c1cn2ccccc2n1` (centres unmarked), the AC50 lay within 1 to 5 µM.

As for `N#Cc1ncoc1C(=O)N1CCc2[nH]cnc2C1c1cn2ccccc2n1` (centres unmarked) [listing 1 of 2 here], the AC50 lay within 1 to 5 µM.

With `O=C(c1cnc(C(F)(F)F)s1)N1CCc2[nH]cnc2C1c1cn2ccccc2n1` (centres unmarked) [listing 1 of 2 here], the AC50 is 1 to 5 µM.

For `O=C(C1CC1(F)F)N1CCc2[nH]cnc2C1c1cn2ccccc2n1` (centres unmarked) [listing 1 of 3 here], the AC50 lay in the range of 1 to 5 µM.

As for `O=C(C1CC1(F)F)N1CCc2[nH]cnc2C1c1cn2ccccc2n1` (centres unmarked) [listing 2 of 3 here], the AC50 lay in the range of 1 to 5 µM.

As for `O=C(CCc1ccccc1)N1CCc2[nH]cnc2C1c1cn2ccccc2n1` (centres unmarked) [listing 2 of 2 here], the AC50 was over 5 µM.

With `Cc1nc(-c2ccccn2)oc1C(=O)N1CCc2[nH]cnc2C1c1cn2ccccc2n1` (centres unmarked) [listing 2 of 2 here], the AC50 was over 5 µM.

Take `O=C(c1cnc(C2CC2)s1)N1CCc2[nH]cnc2C1c1cn2ccccc2n1` (centres unmarked) [listing 2 of 2 here]: the AC50 was over 5 µM.

Consider `N#Cc1ncoc1C(=O)N1CCc2[nH]cnc2C1c1cn2ccccc2n1` (centres unmarked) [listing 2 of 2 here], for which the AC50 was over 5 µM.

Turning to `O=C(c1cnc(C(F)(F)F)s1)N1CCc2[nH]cnc2C1c1cn2ccccc2n1` (centres unmarked) [listing 2 of 2 here], the AC50 was over 5 µM.

On to `O=C(C1CC1(F)F)N1CCc2[nH]cnc2C1c1cn2ccccc2n1` (centres unmarked) [listing 3 of 3 here], for which the AC50 is over 5 µM.

For the compound `Cc1ncoc1C(=O)N1CC2(CC2)c2[nH]cnc2C1c1cn2ccccc2n1` (centres unmarked), the AC50 was in the range of 1 to 5 µM.

`CC1CN(C(=O)c2nnc(N3CC(F)C3)o2)C(c2cc3ccccc3cn2)c2nc[nH]c21` (centres unmarked): the half-maximal activity concentration (AC50) was over 5 µM.

As for `CC1CN(C(=O)c2nnc(N3CCN(C)CC3)o2)C(c2cc3ccccc3cn2)c2nc[nH]c21` (centres unmarked), the AC50 is 1 to 5 µM.

For the compound `CC1CN(c2nnc(-c3ccccn3)o2)C(c2cc3ccccc3cn2)c2nc[nH]c21` (centres unmarked), the AC50 was in the range of 1 to 5 µM.

Turning to `CC1CN(C(=O)c2oc(-c3ccccn3)nc2C(F)(F)F)C(c2cc3ccccc3cn2)c2nc[nH]c21` (centres unmarked), the AC50 was 0.5 to 1 µM.

For the compound `CC(C)(O)c1ccc2c(C(=O)N3CCc4[nH]cnc4[C@H]3c3cc4ccccc4cn3)cnn2c1` (single isomer, unassigned), the AC50 was 1 to 5 µM.

On to `COCc1ncc(C(=O)N2CCc3[nH]cnc3[C@@H]2c2ccc3ccccc3n2)o1` (single isomer, unassigned), for which the AC50 was in the range of 1 to 5 µM.

Turning to `COCc1ncc(C(=O)N2CCc3[nH]cnc3[C@@H]2c2ccc3ccccc3n2)s1` (single isomer, unassigned), the AC50 lay in the range of 1 to 5 µM.

Turning to `CC(C)(O)c1ncc(C(=O)N2CCc3[nH]cnc3C2c2cc3ccccc3cn2)o1` (single isomer, unassigned), the AC50 lay in the range of 1 to 5 µM.

`Cc1nc(C(C)(C)O)oc1C(=O)N1CCc2[nH]cnc2[C@H]1c1cc2ccccc2cn1` (single isomer, unassigned): the AC50 fell in the range of 1 to 5 µM.

As to `O=C(c1cnc(-c2ccccn2)o1)N1CCc2[nH]cnc2[C@@H]1c1cc2ccccc2nn1` (single isomer, unassigned), the AC50 was over 5 µM.

For the compound `O=C(Cc1coc(C(F)F)n1)N1CCc2nc[nH]c2[C@H]1c1cn2ccccc2n1` (single isomer, unassigned), the AC50 is over 5 µM.

As for `O=C(c1oc(-c2ccccn2)nc1C1CC1)N1CCc2nc[nH]c2[C@H]1c1cn2ccccc2n1` (single isomer, unassigned), the AC50 is over 5 µM.

Regarding `FC(F)c1nnc(N2CCc3[nH]cnc3[C@H]2c2ccc3ccccc3n2)o1` (single isomer, unassigned), the AC50 was over 5 µM.

Regarding `Cc1nc(N(C)C)oc1C(=O)N1CCc2[nH]cnc2[C@H]1c1ccc2ccccc2n1` (single isomer, unassigned), the AC50 was over 5 µM.

On to `C[C@@H](O)c1nnc(C(=O)N2CCc3[nH]cnc3[C@H]2c2cc3ccccc3nn2)o1` (single isomer, unassigned), for which the AC50 was over 5 µM.

For the compound `C[C@H](O)c1nnc(C(=O)N2CCc3[nH]cnc3[C@H]2c2cc3ccccc3nn2)o1` (single isomer, unassigned), the AC50 is 1 to 5 µM.

With `Cc1ncoc1C(=O)N1CC2(CC2)c2[nH]cnc2[C@H]1c1ccc2ccccc2n1` (single isomer, unassigned), the AC50 is over 5 µM.

`COCCNc1nnc(C(=O)N2C[C@@H](C)c3[nH]cnc3[C@H]2c2cc3ccccc3cn2)o1` (single isomer, unassigned): the AC50 is over 5 µM.

In the case of `C[C@H]1CN(C(=O)c2nnc(N3CC(F)C3)o2)[C@H](c2cc3ccccc3cn2)c2nc[nH]c21` (single isomer, unassigned), the AC50 is 1 to 5 µM.

For the compound `CC1CN(C(=O)c2nnc(NC3CC3)o2)C(c2cc3ccccc3cn2)c2nc[nH]c21` (single isomer, unassigned), the AC50 was over 5 µM.
